Measurements taken from US8486991B2, “Enantiomerically pure phosphoindoles as HIV inhibitors” (Idenix Pharmaceuticals, Inc., priority 2006, dated 2013).
“Also recorded” adds a separate entry of the source. Where two headings read alike, the source gives them in different places.

Tests used:
[1] = tested on: 9 different HIV-1 subtypes (A, B, C, D, F1, G, H, AE, AG), 18 viruses; experiment: PhenoSense testing, HIV-1 subtype panel; type: cell-based; conditions: Human immunodeficiency virus 1, read-out: potency range, panel of 9 different HIV-1 subtypes
Description: The activities of the test and control compounds were next tested against a subtype panel which covers all major HIV-1 subtypes or clades (A, B, C, D, F1, G, H, AE and AG). This panel was part of a 64 virus panel selected from the large library of clinical isolates Monogram BioSciences (formerly ViroLogics). Each of the subtypes in the panel was represented by 2 distinct viruses which share many sequence similarities, but also some key differences and therefore could respond differently to one or more of the drugs included in this study.

HIV-1 W.T. (NL4-3) virus = experiment: PBMC cell assay, W.T. (NL4-3); type: cell-based
[2] = tested on: HIV-1 IIIB K103R/V179D/P225H triple mutant virus; experiment: microbe, parasite or virus in culture; type: cell-based; conditions: for EC50: Human immunodeficiency virus 1, IIIB; for Fold Change, K103R/V179D/P225H: Table 16, IIIB
Procedure: (§1) The test articles were next profiled against a panel of HIV-1 IIIB laboratory cultivated mutants as summarized in the text below. Antiviral efficacy was determined via a CPE assay with an MTS read-out for cell viability.

HIV-1 IIIB w.t. virus = experiment: microbe, parasite or virus in culture; type: cell-based
Procedure: as §1

HIV-1 W.T. (BH10) virus = experiment: PBMC cell assay, W.T. (BH10); type: cell-based
[3] = tested on: HIV-1 K103N clinical isolates 4937 and 5002; experiment: microbe, parasite or virus in culture; type: cell-based; conditions: Human immunodeficiency virus 1, PBMC, read-out: Average EC50 Values ± Standard Deviation, K103N
in vitro = experiment: in vitro
Procedure: Cell viability was determined via MTT staining.

CYP2C19 = CYP2C19 (Homo sapiens, UniProt P33261); experiment: Human liver microsomal CYP450 inhibition, CYP2C19
Procedure: In addition, the type of inhibition was also evaluated.
Enzyme kinetic studies of cytochrome P450 isozyme inhibition were conducted using human liver microsomes.

[4] = target: site-directed mutant HIV-1 RT enzymes; experiment: HIV-1 RT enzyme assay, whole panel (ranges); type: biochemical; conditions: for IC50: Table 3, range over W.T. and 7 mutant enzymes
Description: In Vitro Antiviral Activity Against Additional Mutant HIV RT Enzymes
The studies are summarized in the text that follows.

[5] = In vivo pharmacokinetics, monkeys; design: species or system monkey; conditions: for Tmax / bioavailability: po, 5 mg/kg, 5 mg/kg PO-Fed; for bioavailability: read-out: BA (absolute oral bioavailability)
Procedure: All animals received a single oral or intravenous dose of compound in either polyethylene glycol 400 (PEG400) or a mixture of 10% ethanol (EtOH), 10% dimethylacetamine (DMA) and 80% PEG400 at the indicated dose level. Plasma concentration data were acquired using sensitive and specific LC-MS/MS methods. Pharmacokinetic data from the toxicity study included aspects of gender differences, variability and exposure.
Blood samples (1.5-2.5 mL) were collected in heparinized tubes at 0 (pre-dose), 5 (IV only), 10, 20, 30 min, 1, 2, 4, 6, 8, 12 (PO only) and 24 hr after dosing. Plasma was separated and stored at −70° C. until analysis.
Concentrations of unlabeled compound I and compound III within plasma samples and excreta from rat, dog and monkey PK studies were identified through high performance liquid chromatographic (HPLC) methods that incorporated tandem mass spectrometric detection (LC-MS/MS).
The absolute oral bioavailability was determined in pharmacokinetic by comparison of AUC values of parent compound following single intravenous and oral doses of in rats (compound III only), dogs and monkeys.

[6] = Cellular cytotoxicity, 4 days, MTS, MOLT-4; type: cell-based; conditions: human, Table 21, read-out: Average CC50 Values ± Standard Deviation, MOLT-4
Procedure: (§2) Cell viability was measured by standard MTT or MTS staining.
(§3) Following drug exposure for 4 days, cell viability was measured by MTS staining and CC50 values were determined. Drug concentrations ranged from 0.005 μM to 100 μM.

[7] = Cellular cytotoxicity, 4 days, MTS, U937; type: cell-based; conditions: human, Table 21, read-out: Average CC50 Values ± Standard Deviation, U937
Procedure: as §2, §3

[8] = tested on: CYP3A4 (activation of PXR in DPX2 cells); experiment: CYP3A4 induction screen in DPX2 cells; type: cell-based, human; conditions: extent compared with rifampicine, mifepristone, androstanol
Description: The potential for in vitro induction of CYP3A4 was screened in DPX2 cells. The DPX2 cell line is a derivative of a human hepatocellular carcinoma cell line (HepG2) transformed with the human pregnane x receptor (PXR) and a reporter gene vector containing the enhancer region of CYP3A4. The potential for in vitro induction of CYP1A2 was screened in CYP1A2-DRE cells. The CYP1A2-DRE cell line is a stably transformed HepG2 cells with dioxin response elements (DRE) and reporter gene containing CYP1A2 promoter elements. The extent of CYP3A4 induction was determined by comparing the activation of PXR obtained with test article to that obtained with rifampicine (potent inducer), mifepristone (moderate inducer) and androstanol (weak inducer). The extent of CYP1A2 induction was determined by comparing the activation of the aryl hydrocarbon receptor (AhR) obtained with test article to that obtained with TCDD (potent inducer), omeprazole (moderate inducer), and 2-acetylaminofluorene (weak inducer).

[9] = Cellular cytotoxicity, 4 days, MTS, IM9; type: cell-based; conditions: human, Table 21, read-out: Average CC50 Values ± Standard Deviation, IM9
Procedure: as §2, §3

[10] = tested on: HIV-1 BH10 wild-type virus; experiment: microbe, parasite or virus in culture; type: cell-based
[11] = Plasma protein binding by equilibrium dialysis, rat; type: in vitro ADME
Procedure: The in vitro plasma protein binding of compound I and compound III in rat, dog, monkey and human plasma was determined by equilibrium dialysis. Protein binding was assessed by equilibrium dialysis using rat, dog, monkey and human plasma. Samples were assayed by HPLC with LC-MS/MS detection. Plasma protein binding was high (>99%) for all species and for both compounds.

[12] = MT4, read-out: Average EC50 Values ± Standard Deviation, K103R/V179D/P225H
[13] = MT4, read-out: EC50, K103R/V179D/P225H triple mutant virus
[14] = Human immunodeficiency virus 1, MT4, 96 h, read-out: mean EC50, wild-type BH10 virus in MT-4 cells, p24 ELISA, 4 day
[15] = Human immunodeficiency virus 1, MT4, read-out: Average EC50 Values ± Standard Deviation, host MT-4, virus BH10, Table 17

CYP2C19, sequence (P33261 whole entry): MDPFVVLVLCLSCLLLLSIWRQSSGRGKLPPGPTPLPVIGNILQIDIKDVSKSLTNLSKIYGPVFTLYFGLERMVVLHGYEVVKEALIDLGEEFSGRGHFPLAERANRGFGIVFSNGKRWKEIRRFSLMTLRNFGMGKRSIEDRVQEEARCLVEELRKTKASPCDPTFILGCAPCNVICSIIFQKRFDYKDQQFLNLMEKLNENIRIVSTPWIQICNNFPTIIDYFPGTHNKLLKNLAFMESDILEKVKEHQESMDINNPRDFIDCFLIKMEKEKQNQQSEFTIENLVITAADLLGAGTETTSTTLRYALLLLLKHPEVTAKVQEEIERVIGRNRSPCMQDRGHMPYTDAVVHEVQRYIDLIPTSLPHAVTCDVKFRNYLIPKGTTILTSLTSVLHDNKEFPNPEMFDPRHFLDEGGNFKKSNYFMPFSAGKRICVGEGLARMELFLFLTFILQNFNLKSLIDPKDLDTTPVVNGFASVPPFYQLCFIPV

## CO[P@](=O)(c1cc(C)cc(/C=C/C#N)c1)c1c(C(N)=O)[nH]c2ccc(Cl)c(F)c12 [Compound I, (2-Carbamoyl-5-chloro-4-fluoro-1H-indol-3-yl)-[3-((E)-2-cyano-vinyl)-5-methyl-phenyl]-(R)-phosphinic acid methyl ester]
[1]
  EC50: 0.25 to 3.2 nM
HIV-1 W.T. (NL4-3) virus; Human immunodeficiency virus 1, NL43, PBMC, read-out: Average EC50 Values ± Standard Deviation, W.T. (NL4-3)
  EC50: 1.5 ± 0.7 nM
HIV-1 W.T. (NL4-3) virus; Human immunodeficiency virus 1, NL43, PBMC, read-out: mean EC50, NL4-3 strain in human PBMC
  EC50: 1.5 nM
[2]; [12]
  EC50: 10 ± 1.5 nM
[2]; [13]
  EC50: 10 nM
[2]
  Fold Change, K103R/V179D/P225H: 11.1±4.1 fold
[2]; listed as Cmpd. I
  Fold Change, K103R/V179D/P225H: 11.1 ± 4.1 fold
HIV-1 IIIB w.t. virus; Human immunodeficiency virus 1, MT4, Table 15, IIIB, CPE, read-out: Average EC50 Values ± Standard Deviation, W.T.
  EC50: 1 ± 0.4 nM
HIV-1 IIIB w.t. virus; Table 16, IIIB
  Fold Change, W.T.: 1 fold
HIV-1 W.T. (BH10) virus; Human immunodeficiency virus 1, PBMC, read-out: Average EC50 Values ± Standard Deviation, W.T. (BH10)
  EC50: 0.4 ± 0.1 nM
HIV-1 W.T. (BH10) virus; Human immunodeficiency virus 1, PBMC, read-out: mean EC50, BH-10 strain in human PBMC
  EC50: 0.4 nM
[3]
  EC50: 0.7 ± 0.3 nM
In vitro
  CC50 at 3 days: 52600 nM
CYP2C19
  IC50: 10200 nM
CYP2C19; human liver microsomes
  IC50, CYP2C19: not observed
[4]
  IC50: 160 to 4670 nM
[4]; Table 4, range of fold changes over the panel
  Mean Activity Range (fold-resistance): 0.5 to 15.5 µM
[5]; Monkey, 5 mg/kg oral
  bioavailability in males based on AUC values, excluding one animal: 75%
[5]; female, monkey, in vivo, 3F, median
  Tmax: 4 h
[5]; female, monkey, in vivo, Monkey, 3F (females)
  bioavailability: 61%
[5]; in vivo, monkey, 5 mg/kg oral dose, read-out: plasma concentrations at 24 hours post-dose
  concentration at 24 h: 17.9 ng/mL
[5]; male, monkey, in vivo, 3M, median
  Tmax: 4 h
[5]; male, monkey, in vivo, males (3M or 2M), mean
  Tmax: 2.7 h
[5]; male, monkey, in vivo, Monkey, 3M (males)
  bioavailability: 54%
[5]; male, monkey, in vivo, Monkey, males (3M or 2M), exploratory study
  bioavailability: 58%
[6]
  CC50 at 4 days: 16600 ± 400 nM
[7]
  CC50 at 4 days: 26500 ± 500 nM
[8]
  Induction, DPX2 (CYP3A4): moderate inducers; also recorded: Moderate (n = 2)
[9]
  CC50 at 4 days: 32900 ± 2600 nM
[10]; [14]
  EC50: 1 nM
[10]; [15]
  EC50: 1 ± 0.4 nM
[10]; Human immunodeficiency virus 1, MT4, read-out: EC50, BH10, Example 16 comparative tables, unit inferred, several lines per compound
  EC50: 1 ± 0.5 nM
[10]; Table 7, EC50 mutant / EC50 wild-type
  Fold Change, W.T.: 1 fold
[10]; read-out: EC50, BH10, Example 16 comparative tables, unit inferred, several lines per compound
  EC50: 0.7 nM
[10]; read-out: mean EC50, wild-type BH10 virus in MT-4 cells, p24 ELISA, 4 day
  EC50: 1.2 nM
[11]
  Percentage Plasma Protein Binding, Rats: 99.1%
[11]; rat, plasma, read-out: Percentage Plasma Protein Binding, Rats
  fraction unbound: < 0.01

## O=C1Nc2ccc(Cl)cc2C(C#CC2CC2)(C(F)(F)F)O1 (stereo not drawn) [EFV, 6-chloro-4-cyclopropylethynyl-4-trifluoromethyl-1,4-dihydro-2H-3,1-benzoxazin-2-one, reference compound]
[1]
  EC50: 0.4 to 3.1 nM
HIV-1 W.T. (NL4-3) virus; Human immunodeficiency virus 1, NL43, Table 14, PBMC, read-out: Average EC50 Values ± Standard Deviation, W.T. (NL4-3)
  EC50: 2.1 ± 0.7 nM
[2]; [12]
  EC50: > 1000 nM
[2]; [13]
  EC50: > 1000 nM
HIV-1 IIIB w.t. virus; Human immunodeficiency virus 1, IIIB, MT4, read-out: Average EC50 Values ± Standard Deviation, W.T.
  EC50: 1.5 ± 0.6 nM
HIV-1 W.T. (BH10) virus; Human immunodeficiency virus 1, Table 14, PBMC, read-out: Average EC50 Values ± Standard Deviation, W.T. (BH10)
  EC50: 0.9 ± 0.3 nM
[3]
  EC50: 41.4 ± 36.9 nM
In vitro
  CC50 at 3 days: 70900 ± 7600 nM
[4]
  IC50: ≥ 20 nM
[6]; MOLT-4 cells (T lymphoblastic leukemia cell line)
  CC50 at 4 days: 41700 ± 3400 nM
[7]; U-937 cells (monocytes derived from a histiocytic lymphoma)
  CC50 at 4 days: 23200 ± 1000 nM
[9]; IM9 cells (B lymphoblastic cell line)
  CC50 at 4 days: 51000 ± 1300 nM
[10]; [14]
  EC50: ~1 nM
[10]; [15]
  EC50: 1.2 ± 0.8 nM
